Values after ≈ are worked out from the molar mass of the structure shown.
Tests used:
CYP3A = experiment: In vitro metabolism of Compound A; assay type: in vitro ADME; details: in vitro data
[1] = Hygroscopicity of the solid form (Form F) of Compound A; assay type: physicochemical; details: at 80% relative humidity (RH)
[2] = Compound A monotherapy clinical study; assay type: in vivo, human
[3] = Solubility of the solid form (Form F) of Compound A; assay type: physicochemical
[4] = Solid form stability of Form F at long-term and accelerated condition; assay type: physicochemical

With O=C1CCc2c(Oc3ccc4c(c3)[C@H]3[C@H](NC(=O)Nc5cc(F)c(F)cc5F)[C@H]3O4)ccnc2N1 [Compound A, 1-((1S,1aS,6bS)-5-((7-oxo-5,6,7,8-tetrahydro-1,8-naphthyridin-4-yl)oxy)-1a,6b-dihydro-1H-cyclopropa[b]benzofuran-1-yl)-3-(2,4,5-trifluorophenyl) urea] the Main metabolic pathway (CYP3A) was “mainly metabolized by the CYP3A pathway”, the “Hygroscopicity (classification)” value [1] was “moderately hygroscopic” and the “Hygroscopicity: moisture absorption” value ([1]; actual moisture of 81.5%) was 81.5% and a moisture absorption of about 5.425%; the sample was. For the same compound, the “MTD (maximum tolerated dose)” value ([2]; Compound A monotherapy, QD) was 40 mg, the “Increased incidence of ocular AEs” value ([2]; emerging data from the ongoing Compound A clinical study) was “no evidence” and the solubility ([3]; 0.1N HCl, simulated gastric fluid, in 0.1N HCI) was 240 µg/mL (≈ 497 µM). The solubility ([3]; medium with 0.5% hexadecyl trimethyl ammonium bromide (HTAB), aqueous with cosolvent or surfactant or cyclodextrin, with 0.5% HTAB (hexadecyl trimethyl ammonium bromide)) was 310 µg/mL (≈ 643 µM), the solubility ([3]; medium with 1% sodium lauryl sulphate (SLS), aqueous with cosolvent or surfactant or cyclodextrin, with 1% SLS (sodium lauryl sulphate)) was 450 µg/mL (≈ 933 µM) and the solubility ([3]; pH 4.5 buffer, pH 4.5, aqueous buffer) was less than 5 µg/mL. For the same compound, the solubility ([3]; pH 6.8 buffer, pH 6.8, aqueous buffer) was less than 5 µg/mL, the “Stability: time Form F is in amorphous form” value ([4]; accelerated condition (40° C./75% RH)) was “(25° C./60% RH) as well as for 6 months at accelerated condition (40° C./” and the “Stability: time Form F is in amorphous form” value ([4]; long-term condition (25° C./60% RH)) was “Form F is in amorphous form for 24 months at long-term condition”.
